From US7151108B2, “[3,4-a:3,4-c]carbazole compounds” (Les Laboratories Servier, priority 2002, dated 2006)

Tests used:
L1210 murine leukaemia = experiment: In vitro antiproliferative activity (Microculture Tetrazolium Assay) on L1210; assay type: cell-based; conditions: L1210 cells, exposure 4 doubling periods or 48 hours; read-out: IC50, the concentration of cytotoxic agent that inhibits the proliferation of the treated cells by 50%
Method: (§1) Three cell lines were used: • L1210 murine leukaemia • A549 non-small-cell human lung carcinoma • DU145 prostate carcinoma
(§2) L1210 murine leukaemia was used in vitro. The cells are cultured in RPMI 1640 complete culture medium containing 10% foetal calf serum, 2 mM glutamine, 50 units/ml of penicillin, 50 μg/ml of streptomycin and 10 mM Hepes, pH: 7.4. The cells are distributed on microplates and are exposed to the cytotoxic compounds for 4 doubling periods, or 48 hours. The number of viable cells is then quantified by a colorimetric assay, the Microculture Tetrazolium Assay (J. Carmichael et al., Cancer Res.; 47, 936–942 (1987)). The results are expressed as the IC50, the concentration of cytotoxic agent that inhibits the proliferation of the treated cells by 50%.

DU145 prostate carcinoma = experiment: In vitro antiproliferative activity (Microculture Tetrazolium Assay) on DU145; assay type: cell-based; conditions: DU 145 cells; read-out: IC50, the concentration of cytotoxic agent that inhibits the proliferation of the treated cells by 50%
Method: as §1, §2

[1] = tested on: A549 non-small-cell human lung carcinoma; experiment: In vitro antiproliferative activity (Microculture Tetrazolium Assay) on A549; assay type: cell-based; conditions: A549 cells; read-out: IC50, the concentration of cytotoxic agent that inhibits the proliferation of the treated cells by 50%
Method: as §1, §2

Cn1c(=O)c2c3[nH]c4ccccc4c3c3c(=O)oc(=O)c3c2c1=O
melting point: 294 °C (dec.)

Cn1c(=O)c2c3[nH]c4ccccc4c3c3c(=O)n(C)c(=O)c3c2c1=O [Example 2, 2,5-dimethyl-1H-dipyrrolo[3,4-a:3,4-c]carbazole-1,3,4,6(2H,5H,7H)-tetrone]
IC50 (L1210 murine leukaemia): 6.8 µM
IC50 (DU145 prostate carcinoma): 5.4 µM
IC50 [1]: 4.7 µM
